PubChem BioAssay AID1963432 (Molecular Pharmacology Branch, DTP, NCI, 2024)

Tested on: SYO-1 complex spheroid growth, percent test/control
Assay: Anticancer human tumor SYO-1 cell line growth inhibition [Asc];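 also: compound exposure lasted 7 days after spheroids grew 3 days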;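 as to viability, T/C: 100% = DMSO vehicle control viability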
Details: for IC50: curve of first compound; for viability, T/C: stronger effect = lower value; active = viability on the fitted dose curve at most 10% of control; inactive = the rest
Experimental: Multicellular complex tumor spheroid response to apoptosis pathway targeting inhibitors Alrizomadlin, Pelcitoclax, and Dasminapant in combination with a variety of drugs and investigational agents in selected tumor cell lines
The MDM2 inhibitor alrizomadlin, the Bcl-2/Bcl-xL inhibitor pelcitoclax, and the IAPs inhibitor dasminapant were evaluated both individually and in combination with standard of care and investigational anticancer small molecules within a complex spheroid model of solid tumors. . Complex spheroids include a stromal component modeled by human endothelial cells (HUVEC) and fibroblasts modeled by human mesenchymal stem cells (MSCs). The concentration ranges selected for each drug and investigational agent were based upon clinically achievable concentrations if the clinical Cmax of the agent was known.
Compounds. The drugs and investigational agents: alrizomadlin (APG-115; NSC831270), pelcitoclax (APG-1252; NSC835773), dasminapant (APG-1387;NSC834197), TAK-243 (NSC785004), copanlisib (NSC809693), olaparib (NSC753686), talazoparib (NSC767125), cobimetinib (NSC 768068), eltanexor (KPT-8602, NSC 794443), abemaciclib (NSC 768073), sotorasib (NSC818433), adagrasib (NSC 831453), MRTX-1133 (NSC 836407), Iadademestat (ORY1001, NSC 806812), and RMC-4630 (NSC839698), were obtained from the NCI Developmental Therapeutics Program Chemical Repository. The FDA-approved anticancer drug set is available from the Developmental Therapeutics Program at https://dtp.cancer.gov/organization/dscb/obtaining/available plates.htm. […] The stock solutions were prepared in dimethyl sulfoxide (DMSO, Sigma-Aldrich, St. Louis, MO, cat. D2650) at 800-fold the tested concentration and stored at -70 degrees C prior to their use. All drugs and investigational agents were tested over a range starting from a high concentration at or near the clinical Cmax and decreasing in half-log increments. If the clinical Cmax for an agent had not been determined, the highest concentration tested was 10 microM.
The patient-derived cancer (PDC) cell lines include five colon adenocarcinomas: 186277-243-T-J2-PDC, 616215-338-R-J1-PDC, 439559-082-T-J2-PDC, 463943-066-T-J2-PDC, and 519858-162-T-J1-PDC; three pancreatic carcinomas: 323965-272-R-J2-PDC, 521955-158-R6-J3-PDC, and 521955-158-R2-J5-PDC; two uterine sarcomas: 327498-152-R-J2-PDC and 993429-296-R-J1-PDC; two rhabdomyosarcomas: 755483-174-R-J1-PDC and 772245-204-R-J1-PDC; two soft tissue sarcomas: 126254-015-R-J1-PDC and 494315-158-R-J1-PDC; two malignant fibrous histiocytomas: 317291-083-R-J1-PDC and 596521-263-R-J1-PDC; two breast carcinomas: 171881-019-R-J1-PDC and 885512-296-R-J2-PDC; and one ovarian carcinoma: 6556581-035-R-J-PDC were obtained from the NCI PDMR, (https://pdmr.cancer.gov). The established cell lines HSSY-2 synovial sarcoma (RRID:CVCL 8719), SYO-1 synovial sarcoma (RRID:CVCL_7146), MPNST malignant peripheral neural sheath tumor were obtained from the Sloan Kettering Institute. The following established cell lines were purchased from the American Type Culture Collection (ATCC, Manassas, VA), Sor the received from the NCI repository:, PANC-1 pancreatic carcinoma (CRL-1469, RRID:CVCL_0480), OVCAR-5 ovarian carcinoma (RRID:CVCL_1628), OVCAR-8 ovarian carcinoma (RRID:CVCL_1629), , MCF-7 breast carcinoma (CRL-12584, RRID:CVCL_0031), MDA-MB-231 breast carcinoma (CRL-12532, RRID:CVCL_0062), NCI-H1876 small cell lung carcinoma (CRL-5902, RRID:CVCL_1503), NCI-H510A small cell lung carcinoma (HTB-184, RRID:CVCL_1565), NCI-H1417 (CRL-5869, RRID:CVCL_1469), and NCI-H196 small cell lung carcinoma (CRL-5823, RRID:CVCL_1509). Dr. Peter Houghton (Greehey Children's Cancer Research Institute, University of Texas Health Science Center, San Antonio, TX) provided Rh-18 rhabdomyosarcoma (RRID:CVCL_1659). Pooled donor human umbilical vein endothelial cells (HUVEC, Lonza, cat. CC-2519) and human mesenchymal stem cells (hMSC, Lonza, cat. PT-2501) were purchased from Lonza (Walkersville, MD).
Cell Culture. […]

[1] = second compound 0.00949 µM, first compound 0.0316 µM
[2] = second compound 0.00949 µM, first compound 0.1 µM
[3] = second compound 0.03 µM, first compound 0.0316 µM
[4] = second compound 0.03 µM, first compound 0.1 µM
[5] = second compound 0.0949 µM, first compound 0.0316 µM
[6] = second compound 0.0949 µM, first compound 0.1 µM
[7] = second compound 0.3 µM, first compound 0.0316 µM
[8] = second compound 0.3 µM, first compound 0.1 µM
[9] = second compound 0.949 µM, first compound 0.0316 µM
[10] = second compound 0.949 µM, first compound 0.1 µM
[11] = second compound 3 µM, first compound 0.0316 µM
[12] = second compound 3 µM, first compound 0.1 µM

Cn1ncnc1[C@H]1c2n[nH]c(=O)c3cc(F)cc(c23)N[C@@H]1c1ccc(F)cc1 + CCN1C(C(=O)NC23CCC(C(=O)O)(CC2)CC3)C(c2cccc(Cl)c2F)C2(C(=O)Nc3cc(Cl)ccc32)C12CCCCC2
6.16 nM: IC50 (second compound 0.03 µM)
inactive: viability, T/C (second compound 0.00949 µM, first compound 0.000316 µM) 112% | viability, T/C (second compound 0.00949 µM, first compound 0.001 µM) 104% | viability, T/C (second compound 0.00949 µM, first compound 0.00316 µM) 96.2% | viability, T/C (second compound 0.00949 µM, first compound 0.01 µM) 78.7% | viability, T/C [1] 14.9% | viability, T/C (second compound 0.03 µM, first compound 0.000316 µM) 104% | viability, T/C (second compound 0.03 µM, first compound 0.001 µM) 98.2% | viability, T/C (second compound 0.03 µM, first compound 0.00316 µM) 87.5% | viability, T/C (second compound 0.03 µM, first compound 0.01 µM) 22.8% | viability, T/C (second compound 0.0949 µM, first compound 0.000316 µM) 90.8% | viability, T/C (second compound 0.0949 µM, first compound 0.001 µM) 66.6% | viability, T/C (second compound 0.0949 µM, first compound 0.00316 µM) 23.7% | viability, T/C (second compound 0.3 µM, first compound 0.000316 µM) 15.8% | viability, T/C (second compound 3 µM, first compound 0.000316 µM) 10.9%
< 0.316 nM: IC50 (second compound 0.3 µM) | IC50 (second compound 0.949 µM) | IC50 (second compound 3 µM)
16.8 nM: IC50 (second compound 0.00949 µM)
active: viability, T/C [2] 7.79% | viability, T/C [3] 6.44% | viability, T/C [4] 4.46% | viability, T/C (second compound 0.0949 µM, first compound 0.01 µM) 7.28% | viability, T/C [5] 6.03% | viability, T/C [6] 3.35% | viability, T/C (second compound 0.3 µM, first compound 0.001 µM) 9.59% | viability, T/C (second compound 0.3 µM, first compound 0.00316 µM) 5.54% | viability, T/C (second compound 0.3 µM, first compound 0.01 µM) 4.13% | viability, T/C [7] 2.99% | viability, T/C [8] 2.63% | viability, T/C (second compound 0.949 µM, first compound 0.000316 µM) 3.8% | viability, T/C (second compound 0.949 µM, first compound 0.001 µM) 2.11% | viability, T/C (second compound 0.949 µM, first compound 0.00316 µM) 2.99% | viability, T/C (second compound 0.949 µM, first compound 0.01 µM) 1.27% | viability, T/C [9] 1.77% | viability, T/C [10] 1.2% | viability, T/C (second compound 3 µM, first compound 0.001 µM) 1.49% | viability, T/C (second compound 3 µM, first compound 0.00316 µM) 2.04% | viability, T/C (second compound 3 µM, first compound 0.01 µM) 1.73% | viability, T/C [11] 1.53% | viability, T/C [12] 1.16%
1.56 nM: IC50 (second compound 0.0949 µM)

O=C(c1cc(Cc2n[nH]c(=O)c3ccccc23)ccc1F)N1CCN(C(=O)C2CC2)CC1 + CCN1C(C(=O)NC23CCC(C(=O)O)(CC2)CC3)C(c2cccc(Cl)c2F)C2(C(=O)Nc3cc(Cl)ccc32)C12CCCCC2
< 31.6 nM: IC50 (second compound 0.3 µM) | IC50 (second compound 0.949 µM) | IC50 (second compound 3 µM)
inactive: viability, T/C [1] 104% | viability, T/C [2] 93.4% | viability, T/C (second compound 0.00949 µM, first compound 0.316 µM) 99.4% | viability, T/C (second compound 0.00949 µM, first compound 1 µM) 92% | viability, T/C (second compound 0.00949 µM, first compound 3.16 µM) 12.9% | viability, T/C [3] 102% | viability, T/C [4] 89.3% | viability, T/C (second compound 0.03 µM, first compound 0.316 µM) 92.4% | viability, T/C (second compound 0.03 µM, first compound 1 µM) 55.2% | viability, T/C [5] 71.7% | viability, T/C [6] 54.1% | viability, T/C (second compound 0.0949 µM, first compound 0.316 µM) 40.9% | viability, T/C (second compound 0.0949 µM, first compound 1 µM) 12.4% | viability, T/C [7] 9.88%
active: viability, T/C (second compound 0.00949 µM, first compound 10 µM) 4.28% | viability, T/C (second compound 0.03 µM, first compound 3.16 µM) 6.53% | viability, T/C (second compound 0.03 µM, first compound 10 µM) 4.33% | viability, T/C (second compound 0.0949 µM, first compound 3.16 µM) 4.71% | viability, T/C (second compound 0.0949 µM, first compound 10 µM) 3.12% | viability, T/C [8] 9.34% | viability, T/C (second compound 0.3 µM, first compound 0.316 µM) 8.44% | viability, T/C (second compound 0.3 µM, first compound 1 µM) 4.25% | viability, T/C (second compound 0.3 µM, first compound 3.16 µM) 4.23% | viability, T/C (second compound 0.3 µM, first compound 10 µM) 2.9% | viability, T/C [9] 1.89% | viability, T/C [10] 1.57% | viability, T/C (second compound 0.949 µM, first compound 0.316 µM) 3.08% | viability, T/C (second compound 0.949 µM, first compound 1 µM) 2.92% | viability, T/C (second compound 0.949 µM, first compound 3.16 µM) 2.34% | viability, T/C (second compound 0.949 µM, first compound 10 µM) 1.51% | viability, T/C [11] 1.11% | viability, T/C [12] 1.24% | viability, T/C (second compound 3 µM, first compound 0.316 µM) 2.68% | viability, T/C (second compound 3 µM, first compound 1 µM) 1.1% | viability, T/C (second compound 3 µM, first compound 3.16 µM) 1.22% | viability, T/C (second compound 3 µM, first compound 10 µM) 1%
1840 nM: IC50 (second compound 0.00949 µM)
155 nM: IC50 (second compound 0.0949 µM)
1130 nM: IC50 (second compound 0.03 µM)
